Assay results taken from patent US11180482B2, “Anilinopyrimidines as haematopoietic progenitor kinase 1 (HPK1) inhibitors” (Ariad Pharmaceuticals, Inc., priority 2016, dated 2021).
pIC50: −log10 of the molar value.

target: Wild Type HPK1 (MAP4K1) Kinase (Homo sapiens (Human), UniProt Q92918); experiment: HPK1 Assay (Caliper EZ reader, fluorescein tagged peptide substrate); format: biochemical; settings: ATP 500 micromolar, kinase 6 nM, pH 7.4
Protocol: The enzymatic activity of Wild Type HPK1 (MAP4K1) Kinase was measured in the presence or absence of an inhibitor compound of the present disclosure by preparation of a reaction mixture containing a fluorescein tagged peptide (2 micromolar final concentration), ATP (Adenosine Triphosphate, 500 micromolar final concentration) and Wild Type kinase (6 nM final concentration) in a buffer system comprising 50 mM HEPES (Buffer), 3 mM MgCl2, 5% w/v Trehalose, 0.01% Brij 35 (Detergent), 0.1% Pluronic F127 (Surfactant), 0.1 mM EDTA (Ethylenediaminetetraacetic acid), 0.1 mM EGTA (ethylene glycol-bis(β-aminoethyl ether)-N,N,N′,N′-tetraacetic acid) and 1 mM DTT (Dithiothreitol) and at a pH of 7.4. The reactions were quenched by the addition of EDTA to a final concentration of 25 mM. A Caliper EZ reader was used to measure the extent of substrate to product conversion.
The peptide substrate used in the HPK1 assay was designed based on the amino acid sequence surrounding serine residue 376 of SLP76-Lymphocyte cytosolic protein 2 (a known intracellular substrate of HPK1). This sequence SSFPQSAsLPPYFSQ was modified as follows for use in Caliper assays of HPK1: the serine residues on either side of serine 376 were replaced with alanine, three lysine residues were added at the […] and a fluorescein tag (FAM) was attached to the […] to produce the sequence, FAM-FPQAAsLPPYFAKKK.

Wild Type HPK1 (MAP4K1) Kinase, sequence (Q92918 whole entry, species assumed): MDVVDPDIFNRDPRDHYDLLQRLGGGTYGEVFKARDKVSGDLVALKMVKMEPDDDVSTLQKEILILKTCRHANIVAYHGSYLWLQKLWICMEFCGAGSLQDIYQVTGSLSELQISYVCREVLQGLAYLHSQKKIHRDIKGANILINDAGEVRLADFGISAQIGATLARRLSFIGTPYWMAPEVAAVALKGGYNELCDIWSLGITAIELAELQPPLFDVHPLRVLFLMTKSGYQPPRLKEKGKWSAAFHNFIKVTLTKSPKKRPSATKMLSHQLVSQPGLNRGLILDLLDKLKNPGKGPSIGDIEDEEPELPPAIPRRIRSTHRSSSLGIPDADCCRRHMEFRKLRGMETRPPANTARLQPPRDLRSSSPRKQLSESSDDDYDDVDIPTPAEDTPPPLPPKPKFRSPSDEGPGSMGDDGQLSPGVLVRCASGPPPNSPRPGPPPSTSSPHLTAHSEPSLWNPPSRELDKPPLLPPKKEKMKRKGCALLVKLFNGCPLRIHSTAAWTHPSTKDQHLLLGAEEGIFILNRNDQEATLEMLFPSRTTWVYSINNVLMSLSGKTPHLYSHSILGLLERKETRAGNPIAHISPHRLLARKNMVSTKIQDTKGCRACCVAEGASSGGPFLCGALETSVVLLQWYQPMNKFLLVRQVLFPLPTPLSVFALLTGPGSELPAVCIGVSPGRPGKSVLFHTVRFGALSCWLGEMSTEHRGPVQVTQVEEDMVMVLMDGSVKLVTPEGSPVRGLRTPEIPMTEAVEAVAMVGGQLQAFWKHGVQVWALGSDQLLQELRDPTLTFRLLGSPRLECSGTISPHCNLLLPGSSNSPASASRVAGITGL

| SMILES | pIC50 |
| --- | --- |
| COc1cc2c(cc1Nc1ncc(Cl)c(Nc3ccccc3P(C)(C)=O)n1)C(=O)NCC2 [Example I-33, 7-((5-chloro-4-((2-(dimethylphosphoryl)phenyl)amino)pyrimidin-2-yl)amino)-6-methoxy-3,4-dihydroisoquinolin-1(2H)-one] | 5.00 to 7.00 |
| COc1cc2c(cc1Nc1ncc(Cl)c(Nc3ccccc3P(C)(C)=O)n1)C(=O)N(C)CCC2 [Example I-34, 8-((5-chloro-4-((2-(dimethylphosphoryl)phenyl)amino)pyrimidin-2-yl)amino)-7-methoxy-2-methyl-2,3,4,5-tetrahydro-1H-benzo[c]azepin-1-one] | 5.00 to 7.00 |
| CCOc1cc2c(cc1Nc1ncc(Cl)c(Nc3ccccc3P(C)(C)=O)n1)CN(C)CC2 [Example I-36, (2-((5-chloro-2-((6-ethoxy-2-methyl-1,2,3,4-tetrahydroisoquinolin-7-yl)amino)pyrimidin-4-yl)amino)phenyl)dimethylphosphine oxide] | 7.00 to 8.00 |
| [2H]C1([2H])NCCc2cc(OC)c(Nc3ncc(Cl)c(Nc4ccccc4P(C)(C)=O)n3)cc21 [Example I-39, (2-((5-chloro-2-((6-methoxy-1,2,3,4-tetrahydroisoquinolin-7-yl-1,1-d2)amino)pyrimidin-4-yl)amino)phenyl)dimethyl-phosphine oxide] | > 8.30 |
| COc1cc2c(cc1Nc1ncc(Cl)c(Nc3ccccc3P(C)(C)=O)n1)CNCC2(C)C [Example I-40, (2-((5-chloro-2-((6-methoxy-4,4-dimethyl-1,2,3,4-tetrahydroisoquinolin-7-yl)amino)pyrimidin-4-yl)amino)phenyl)dimethylphosphine oxide] | > 8.30 |
| COc1cc2c(cc1Nc1ncc(Cl)c(Nc3ccccc3P(C)(C)=O)n1)CN(C1COC1)CC2 [Example I-42, (2-((5-Chloro-2-((6-methoxy-2-(oxetan-3-yl)-1,2,3,4-tetrahydroisoquinolin-7-yl)amino)pyrimidin-4-yl)amino)phenyl)dimethylphosphine oxide] | 7.00 to 8.00 |
| COc1cc2c(cc1Nc1ncc(Cl)c(Nc3ccccc3P(C)(C)=O)n1)CN(C)CC2(C)C [Example I-44, (2-((5-chloro-2-((6-methoxy-2,4,4-trimethyl-1,2,3,4-tetrahydroisoquinolin-7-yl)amino)pyrimidin-4-yl)amino)phenyl)-dimethylphosphine oxide] | 8.00 to 8.30 |

Second part, the molecule after the results:

| pIC50 | SMILES |
| --- | --- |
| 5.00 to 7.00 | COc1cc2c(cc1Nc1ncc(Cl)c(Nc3ccccc3P(C)(C)=O)n1)CN(C)CCC2 [Example I-35, (2-((5-chloro-2-((7-methoxy-2-methyl-2,3,4,5-tetrahydro-1H-benzo[c]azepin-8-yl)amino)pyrimidin-4-yl)amino)phenyl)dimethylphosphine oxide] |
| 7.00 to 8.00 | CP(C)(=O)c1ccccc1Nc1nc(Nc2cc3c(cc2C(F)(F)F)CCNC3)ncc1Cl [Example I-37, (2-((5-Chloro-2-((6-(trifluoromethyl)-1,2,3,4-tetrahydroisoquinolin-7-yl)amino)pyrimidin-4-yl)amino)phenyl)dimethylphosphine oxide] |
| > 8.30 | COc1cc2c(cc1Nc1ncc(Cl)c(Nc3ccccc3P(C)(C)=O)n1)CCNC2 [Example I-38, (2-((5-chloro-2-((7-methoxy-1,2,3,4-tetrahydroisoquinolin-6-yl)amino)pyrimidin-4-yl)amino)phenyl)dimethylphosphine oxide] |
| > 8.30 | COc1cc2c(cc1Nc1ncc(Cl)c(Nc3ccccc3P(C)(C)=O)n1)CNCC2 [Example I-41, (2-((5-chloro-2-((6-methoxy-1,2,3,4-tetrahydroisoquinolin-7-yl)amino)pyrimidin-4-yl)amino)phenyl)dimethylphosphine oxide] |
| > 8.30 | [2H]C1([2H])c2cc(Nc3ncc(Cl)c(Nc4ccccc4P(C)(C)=O)n3)c(OC)cc2CCN1C(C)C [Example I-43, (2-((5-chloro-2-((2-isopropyl-6-methoxy-1,2,3,4-tetrahydroiso-quinolin-7-yl-1,1-d2)amino)pyrimidin-4-yl)amino)phenyl)-dimethylphosphine oxide] |
